Measurements as given in patent US20260070905A1, “Derivatives of Imidazo[1,2-A]Pyridine with Anti-Inflammatory Activity” (Universitat de Veléncia, priority 2023, published 2026).
Entries after “also recorded” stand apart in the source; their conditions may differ.

What was measured:
[1] = biological target: T1, recombinant Alk5 kinase (TGFβRI) (Homo sapiens, UniProt P36897); assay: In vitro Alk5 kinase inhibition (Kinase-Glo luminescent kinase assay); type: biochemical; details: for Alk5 kinase inhibition: in vitro kinase assay (FIG. 1); for % kinase activity reduction: values refer to a 100% reduction in activity of the inhibition control GW788388 Hydrate, concentrations of 5 and 10 μM evaluated, ATP 100 μM, 2 h
T1 construct: purchased Abcam ab105908
T1 sequence (P36897 34-503): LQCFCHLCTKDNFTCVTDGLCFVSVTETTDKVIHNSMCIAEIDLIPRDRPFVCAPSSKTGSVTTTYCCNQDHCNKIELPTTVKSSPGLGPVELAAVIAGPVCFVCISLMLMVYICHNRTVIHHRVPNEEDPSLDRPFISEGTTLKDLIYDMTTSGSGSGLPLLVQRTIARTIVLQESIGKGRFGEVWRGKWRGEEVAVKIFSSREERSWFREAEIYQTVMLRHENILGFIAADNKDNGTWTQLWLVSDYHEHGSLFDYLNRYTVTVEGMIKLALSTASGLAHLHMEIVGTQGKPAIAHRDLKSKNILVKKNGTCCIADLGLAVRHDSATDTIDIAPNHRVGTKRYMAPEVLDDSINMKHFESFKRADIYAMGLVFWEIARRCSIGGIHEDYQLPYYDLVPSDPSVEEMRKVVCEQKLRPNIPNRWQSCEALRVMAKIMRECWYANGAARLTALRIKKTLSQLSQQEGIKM
Protocol: For this purpose, recombinant Alk5 (Abcam, ref ab105908) was used, and kinase activity was determined using the commercial Kinase-Glo® Luminiscent kinase assay platform (Promega, ref. TB372).
For this purpose, commercially available recombinant Alk5 protein (Abcam, ref ab105908) was used, as well as the commercial Kinase-Glo® Luminiscent kinase assay platform (Promega, ref TB372), which determines the adenosine triphosphate (ATP) not consumed in the phosphorylation reaction by its conjugation to luciferin in a reaction catalyzed by the luciferase enzyme in the presence of Mg^2+. The luminescence observed is inversely proportional to kinase activity.
From this stock solution, dilutions were made in kinase buffer (Tris-HCl pH 7.5 40 mM; MgCl2 20 mM; bovine serum albumin (BSA) 0.1 mg/mL) of 10 μM and concentrations of 5 and 10 μM were evaluated.
Incubation was carried out for 2 hours at room temperature with stirring and in darkness, following the instructions for the commercial system.
After this time, 50 μL of commercial substrate (diluted 1:8) was added, left to stir for 10 minutes at room temperature, and the luminescence was read using a Luminoskan Ascent instrument (Thermo Scientific, Waltham, USA).
All reactions were performed in duplicate.

[2] = tested on: Caco-2 cells; assay: Viability / MTT cytotoxicity assay on Caco-2 intestinal epithelial cells; type: cell-based; details: Caco-2 epithelial cells, all concentrations used (1, 5 and 10 μM), 24 h (FIG. 3A)
Protocol: To quantify the percentage of cells that remained viable in each of the experiments, THP-1-XBlue™-CD14 macrophages (InvivoGen, 8 to 13 passages) were evaluated, derived from human THP-1 monocytes, which stably express the gene for the alkaline phosphatase enzyme inducible by the NF-kB and AP-1 promoters. Human intestinal epithelial Caco-2 cells (ATCC®, HTB-37TM, 10 to 12 passages) were also evaluated. To do this, Trypan blue (Gibco) was used as an exclusion stain. This dye penetrates cells with damaged membranes (a sign of cell death) and stains their cytoplasm dark blue. To do this, the cell suspensions tested were centrifuged at 500×g (5 min at 24° C.), the cell sediments were resuspended in 0.1 mL of PBS, and then 10 μL were mixed with 10 μL of trypan blue (0.4%) filtered through 0.22 μm. The percentage of live cells was determined in 10 μL of the above mixture using a chamber and a Countess™ cell counter (Invitrogen).
In this second cytotoxicity assessment on THP-1-XBlue-CD14 and Caco-2, the technique previously described was used with the MTT dye (3-(4,5-dimethylthiazol-2-yl)-2,5-diphenyltetrazolium bromide) (Biotium).
To do this, both types of cells were seeded in 96-well plates under conditions identical to those used in the anti-inflammation assays. The cells were then washed with PBS and treated with different compounds: 1) PBS (10 μL) (positive growth control, vehicle); 2) 20% DMSO (negative control, as high doses of this compound are cytotoxic); 3) different concentrations of the compounds PS1801 and PS1906 (1, 5, and 10 μM). The plates were incubated for 24 hours at 37° C., 5% CO2, and then 10 μL of MTT was added to each well and the plate was incubated for 4 hours at 37° C., 5% CO2. The formazan crystals formed were dissolved in 180 μL of DMSO, and the plate was incubated for 20 minutes with shaking at room temperature. The absorbance was measured in each well at 595 nm (problem) and 655 nm (background), following the manufacturer's instructions, using an iMark™ Microplate Absorbance Reader (Bio-Rad). The samples were analyzed in triplicate.

[3] = tested on: acute lung injury (ALI) induced by LPS; assay: Murine model of acute lung injury (ALI) induced by intratracheal LPS; type: in vivo, mouse (C57BL/6J-OlaHsd); details: mice
From the text: In order to evaluate the potential anti-inflammatory effect of the PS1906 molecule in an in vivo model, we selected the ALI model induced by tracheal instillation of lipopolysaccharide (LPS), which has been widely described in the literature and previously performed by members of the research group (Clemente-Moragón et al., 2020). This murine model is a model of acute lung inflammation or damage associated with a long-term fibrotic period, so it can be used to study both inflammatory lung diseases and pulmonary fibrotic processes.
Mice of the C57BL/6J-OlaHsd strain were chosen for this model. Adult mice were kept in pathogen-free conditions in a temperature-controlled room with a 12-hour light-dark cycle. Food and water were available ad libitum. The mice were anesthetized intraperitoneally with an injection of an anesthetic cocktail containing atropine sulfate (1 mg/kg; B. Braun, 1 mg/mL), xylazine hydrochloride (20 mg/kg; Rompun® Bayer, 20 mg/mL), and ketamine (100 mg/kg; Anesketin Dechra, 100 mg/mL). All experimental and other scientific procedures involving animals complied with EU Directive 2010/63EU and Recommendation 2007/526/EC, enacted into Spanish law under Real Decreto 53/2013. Animal protocols were approved by local ethics committees and the Animal Protection Area of the Autonomous Community of Madrid.
In vitro studies were taken into account when selecting the doses to be administered, with a concentration of 10 μM being considered the maximum effective (non-toxic) concentration. Assuming an approximate blood volume of 2 mL for a mouse weighing about 30 g, and taking into account a loss due to distribution, metabolism, or secretion of 50% of the products, we calculated dose 1 (D1) and selected dose 2 (D2) as twice the first. Thus, taking into account the respective molecular weights, the corresponding doses for the PS1906 product were 156 μg/kg (D1) and 312 μg/kg (D2). Physiological saline was used as a diluent for the preparation of the different doses. All doses were prepared to administer the same volume in the mouse. The doses were administered intravenously with the animal properly anesthetized moments before the induction of pulmonary inflammation. […]
After 24 h, the animals were sacrificed and the lungs were washed with 1.5 mL of cold PBS through a tracheal catheter (Introcan Safety 22G, Braun), and a total of 1 mL of bronchoalveolar lavage fluid was extracted from each mouse for the detection of neutrophils and lymphocytes by flow cytometry. […] The data were analyzed with FlowJo software (Ashland). […]

[4] = tested on: THP-1-XBlue™-CD14 macrophages; assay: MTT cytotoxicity assay on THP-1-XBlue-CD14 macrophages; type: cell-based; details: THP-1 macrophages, all concentrations used (1, 5 and 10 μM), 24 h (FIG. 2, FIG. 3B)
From the text: To quantify the percentage of cells that remained viable in each of the experiments, THP-1-XBlue™-CD14 macrophages (InvivoGen, 8 to 13 passages), derived from human THP-1 monocytes, which stably express the gene for the alkaline phosphatase enzyme inducible by the NF-kB and AP-1 promoters.
The MTT dye (3-(4,5-dimethylthiazol-2-yl)-2,5-diphenyltetrazolium bromide) (Biotium) was used. This assay is based on the cleavage of the yellow MTT tetrazolium salt to form purple formazan crystals, produced by metabolically active cells. Formazan is solubilized with DMSO and its concentration is determined by spectrophotometry; the optical density is proportional to the number of viable cells.
To do this, the cells were seeded in 96-well plates at a density of 3×10^5 cells/mL in RPMI 1640 medium (Gibco) supplemented with 10% FBS, penicillin, streptomycin (both at a concentration of 100 μg/mL, Sigma-Aldrich), and PMA (100 ng/mL) (Sigma-Aldrich), and were cultured at 37° C., 5% CO2 for 48 h. […] The absorbance was measured in each well at 595 nm (problem) and 655 nm (background), following the manufacturer's instructions, using an iMark™ Microplate Absorbance Reader (Bio-Rad). The samples were analyzed in triplicate. The percentage of viable cells was calculated using the following formula: […]

Row | SMILES | Alk5 kinase inhibition [1] | % kinase activity reduction [1] [%] | cytotoxic effects (cell viability) [2] | ALI score (histopathological lung damage) ([3]; i.v. 156 μg/kg (D1) and 312 μg/kg (D2), LPS 10 mg/kg intratracheal, 24 h (FIG. 6A, 6B), listed as PS1906) | neutrophils in bronchoalveolar lavage fluid (flow cytometry) ([3]; i.v. 156 μg/kg (D1) and 312 μg/kg (D2), LPS 10 mg/kg intratracheal, 24 h (FIG. 6C)) | lymphocytes in bronchoalveolar lavage fluid (flow cytometry) ([3]; i.v. 156 μg/kg (D1) and 312 μg/kg (D2), LPS 10 mg/kg intratracheal, 24 h (FIG. 6D), not statistically significant) | total number of infiltrated cells in bronchoalveolar lavage fluid (flow cytometry) ([3]; i.v. D1 and D2, LPS intratracheal, 24 h) | cytotoxic effects (cell viability) [4]
1 | c1ccc2oc(-c3ccn4ccnc4c3)cc2c1 [Compound 26, 7-(Benzofuran-2-yl)imidazo[1,2-a]pyridine] | one of those that showed the greatest inhibitory effect | 93.4 | no cytotoxic effects | significantly different from the group of sick mice treated with LPS; also recorded: positive effect | dose-dependent anti-inflammatory effect | dose-dependent anti-inflammatory effect | dose-dependent anti-inflammatory effect | –
2 | COc1ccc(-c2cn3ccc(-c4ccc(O)cc4)cc3n2)cc1 [Compound 16, 4-(2-(4-Methoxyphenyl)imidazo[1,2-a]pyridin-7-yl)phenol] | – | 75.4 | – | – | – | – | – | –
3 | O.O=C(NC1CCOCC1)c1ccc(-c2cc(-c3c[nH]nc3-c3ccccn3)ccn2)cc1 [GW788388, 4-{4-[3-(pyridin-2-yl)-1H-pyrazol-4-yl]-pyridin-2-yl}-N-(tetrahydro-2H-pyran-4-yl)benzamide hydrate, reference compound] | approximately 25% | – | lacking cytotoxic activity | – | – | – | – | lacking cytotoxic activity
4 | CCOC(=O)c1cc2cc(-c3cnc4ccccn34)ccc2[nH]1 [Compound 31, Ethyl 5-(imidazo[1,2-a]pyridin-3-yl)-1H-indole-2-carboxylate] | – | 79.1 | no cytotoxic effects | – | – | – | – | –
5 | Oc1ccc(-c2ccn3ccnc3c2)cc1 [Compound 12, 4-(Imidazo[1,2-a]pyridin-7-yl)phenol] | – | 87.5 | – | – | – | – | – | –
